Experimental data taken from ChEMBL document CHEMBL6177959, “Design, synthesis and evaluation of novel carboline-triazole hybrids as promising antimalarial agents” (Eur J Med Chem, 2025).
Active and inactive are the calls of the source. The rule behind the calls is not given here.

How the values were obtained:
[1] = system: Plasmodium falciparum; test: Antimalarial activity against chloroquine-sensitive Plasmodium falciparum 3D7 infected in human erythrocytes assessed as reduction in parasite growth incubated for 72 hrs by SYBR green dye fluorimetric assay; assay type: functional, organism-based; settings: 3D7, Erythrocyte
[2] = system: Plasmodium falciparum; test: Antimalarial activity against […] infected in human erythrocytes assessed as reduction in parasite growth incubated for 72 hrs by SYBR green dye fluorimetric assay; assay type: functional, organism-based; settings: K1, Erythrocyte
[3] = Resistance index, ratio of IC50 for antimalarial activity against […] infected in human erythrocytes to IC50 for antimalarial activity against chloroquine-sensitive Plasmodium falciparum 3D7 infected in erythrocytes; assay type: functional
[4] = Cytotoxicity against human HepG2 cells; assay type: toxicity, cell-based
[5] = Selectivity index, ratio of CC50 for cytotoxicity against human HepG2 cells to IC50 for antimalarial activity against chloroquine-sensitive Plasmodium falciparum 3D7 infected in human erythrocytes assessed as reduction in parasite growth incubated for 72 hrs by SYBR green dye fluorimetric assay; assay type: toxicity, cell-based; settings: read-out: Ratio CC50/IC50
[6] = system: Plasmodium falciparum; test: Antimalarial activity against […] infected in human erythrocytes assessed as inhibition of parasitic growth at 5 uM incubated for 72 hrs by SYBR green dye fluorimetric assay relative to control; assay type: functional, K1, Erythrocyte; parameters: scale not given: the % may be the effect or the level left
[7] = system: Plasmodium falciparum; test: Antimalarial activity against […] infected in human erythrocytes assessed as inhibition of parasitic growth at 0.16 to 0.63 uM incubated for 72 hrs by SYBR green dye fluorimetric assay relative to control; assay type: functional, K1, Erythrocyte; parameters: scale not given: the % may be the effect or the level left; settings: dose 0.16-0.63 µM
[8] = system: Plasmodium falciparum; test: Antimalarial activity against chloroquine-sensitive Plasmodium falciparum 3D7 infected in erythrocytes assessed as inhibition of parasite growth at 0.16 to 0.31 uM incubated for 72 hrs by SYBR green dye fluorimetric assay; assay type: functional, organism-based; settings: Erythrocyte, dose 0.16-0.31 µM
[9] = system: Plasmodium falciparum; test: Induction of morphological changes in asexual blood stage Plasmodium falciparum assessed as appearance of fragmentation at 1 uM incubated for 24 hrs by Geimsa-staining based light microscopic analysis; assay type: functional, organism-based
[10] = system: Plasmodium falciparum; test: Induction of morphological changes in asexual blood stage Plasmodium falciparum assessed as appearance of condensed cytoplasm at 1 uM incubated for 24 hrs by Geimsa-staining based light microscopic analysis; assay type: functional, organism-based
[11] = system: Plasmodium falciparum; test: Induction of morphological changes in asexual blood stage Plasmodium falciparum assessed as appearance of compact structure at 1 uM incubated for 24 hrs by Geimsa-staining based light microscopic analysis; assay type: functional, organism-based
[12] = system: Plasmodium falciparum; test: Induction of morphological changes in asexual blood stage Plasmodium falciparum assessed as lack of prominent periphery in trophozoites at 1 uM incubated for 24 hrs by Geimsa-staining based light microscopic analysis; assay type: functional, organism-based
[13] = system: Plasmodium falciparum; test: Induction of morphological changes in asexual blood stage Plasmodium falciparum assessed as appearance of healthy rings at 1 uM incubated for 48 to 72 hrs by Geimsa-staining based light microscopic analysis; assay type: functional, organism-based; settings: time 48-72 hrs
[14] = system: Plasmodium falciparum; test: Induction of morphological changes in asexual blood stage Plasmodium falciparum assessed as appearance of schizonts at 1 uM incubated for 48 to 72 hrs by Geimsa-staining based light microscopic analysis; assay type: functional, organism-based; settings: time 48-72 hrs
[15] = system: Plasmodium berghei; test: Antimalarial activity against GFP-luciferase expressing liver stage Plasmodium berghei sporozoites infected in human HepG2 cells assessed as inhibition of parasitic growth by luminescence based analysis; assay type: functional, organism-based
[16] = system: Plasmodium yoelii; test: Antimalarial activity against Plasmodium yoelii N67 infected in female Swiss mouse model assessed as suppression in parasitic growth at 20 mg/kg, po measured on day 4 relative to control; assay type: functional
[17] = system: Plasmodium yoelii; test: Antimalarial activity against Plasmodium yoelii N67 infected in female Swiss mouse model assessed as mean survival time at 20 mg/kg administered orally; assay type: functional; settings: route po
[18] = system: Plasmodium yoelii; test: Antimalarial activity against Plasmodium yoelii N67 infected in female Swiss mouse model assessed as mean survival time at 10 mg/kg administered orally; assay type: functional; settings: route po
[19] = system: Plasmodium yoelii; test: Antimalarial activity against Plasmodium yoelii N67 infected in female Swiss mouse model assessed as suppression in parasitic growth at 20 mg/kg, po measured on day 7 relative to control; assay type: functional
[20] = system: Plasmodium yoelii; test: Antimalarial activity against Plasmodium yoelii N67 infected in female Swiss mouse model assessed as parasite survival at 20 mg/kg, po measured after 7 days relative to control; assay type: functional; settings: N67, 168 h, time 7 day
[21] = system: Plasmodium yoelii; test: Antimalarial activity against Plasmodium yoelii N67 infected in female Swiss mouse model assessed as suppression in parasitic growth at 10 mg/kg, po measured on day 4 relative to control; assay type: functional; settings: time 4 day
[22] = system: Plasmodium yoelii; test: Antimalarial activity against Plasmodium yoelii N67 infected in female Swiss mouse model assessed as suppression in parasitic growth at 10 mg/kg, po measured on day 7 relative to control; assay type: functional; settings: time 7 day

| SMILES | IC50 [1] [nM] | IC50 [2] [nM] | Ratio IC50 [3] | CC50 [4] [µM] | selectivity ratio at 72 h [5] | other results |
| --- | --- | --- | --- | --- | --- | --- |
| O=C(NCc1cn(-c2ccc(C(F)(F)F)cc2)nn1)c1cc2c([nH]c3ccccc32)c(-c2ccc(Cl)cc2Cl)n1 | 980 | 760 | 0.78 | 240 | 245 | Activity [6]: 95.63%; Activity [7]: 14%; Activity [8]: Active; Activity [9]: Active; Irreversible Structural Deformations Observed; Activity [10]: Active; Irreversible Structural Deformations Observed; Activity [11]: Active; Irreversible Structural Deformations Observed; Activity [12]: Active; Irreversible Structural Deformations Observed; Activity [13]: inactive; Activity [14]: inactive |
| O=C(NCc1cn(-c2ccc(F)cc2)nn1)c1cc2c([nH]c3ccccc32)c(-c2ccc(C(F)(F)F)cc2)n1 | 210 | 610 | 2.9 | 71.7 | 341 |  |
| COc1ccc(-c2nc(C(=O)NCc3cn(-c4ccccc4)nn3)cc3c2[nH]c2ccccc23)cc1 | 1570 |  |  | 79.5 | 50.6 |  |
| O=C(NCc1cn(-c2ccccc2)nn1)c1cc2c([nH]c3ccccc32)c(-c2ccc(C(F)(F)F)cc2)n1 | 370 | 750 | 2.03 | 159 | 430 |  |
| O=C(NCc1cn(-c2ccccc2)nn1)c1cc2c([nH]c3ccccc32)c(-c2cccc(Cl)c2)n1 | 800 | 820 | 1.025 | 217 | 271 |  |
| O=C(NCc1cn(-c2ccc(F)cc2F)nn1)c1cc2c([nH]c3ccccc32)c(-c2ccc(Cl)cc2Cl)n1 | 1700 |  |  | 144 | 84.5 |  |
| O=C(NCc1cn(-c2ccccc2)nn1)c1cc2c([nH]c3ccccc32)c(-c2ccc(Cl)cc2Cl)n1 | 2040 |  |  | 214 | 105 |  |
| Cc1ccc(-c2cn(-c3ccc(F)cc3)nn2)cc1 | 3670 |  |  | 159 |  |  |
| Cc1ccc(-c2nc(C(=O)NCc3cn(-c4ccccc4)nn3)cc3c2[nH]c2ccccc23)cc1 | 880 | 320 | 0.36 | 187 | 213 | Activity [6]: 82.3%; Activity [9]: Active; Irreversible Structural Deformations Observed; Activity [10]: Active; Irreversible Structural Deformations Observed; Activity [11]: Active; Irreversible Structural Deformations Observed; Activity [12]: Active; Irreversible Structural Deformations Observed; Activity [13]: inactive; Activity [14]: inactive; IC50 [15]: 4.81 µM |
| CCN(CC)CCCC(C)Nc1ccnc2cc(Cl)ccc12 (configuration not stated) [CHLOROQUINE] |  |  |  |  |  | Activity [16]: 99%; MST [17]: >28 days; MST [18]: 16 days; Activity [19]: 91%; survival at 20 mg/kg [20]: 60%; Activity [21]: 97.8%; Activity [22]: 88% |
| COc1ccc(-c2nc(C(=O)NCc3cn(-c4ccc(F)cc4)nn3)cc3c2[nH]c2ccccc23)cc1 | 1910 |  |  | 163 | 85.5 |  |
| O=C(NCc1cn(-c2cccc(C(F)(F)F)c2)nn1)c1cc2c([nH]c3ccccc32)c(-c2ccc(Cl)cc2Cl)n1 | 1300 |  |  | 195 | 150 |  |
| COc1ccc(-n2cc(CNC(=O)c3cc4c([nH]c5ccccc54)c(-c4ccccc4)n3)nn2)cc1 | 3050 |  |  | 195 | 64 |  |
| O=C(NCc1cn(-c2ccc(OC(F)(F)F)cc2)nn1)c1cc2c([nH]c3ccccc32)c(-c2ccc(Cl)cc2Cl)n1 | 1550 |  |  | 187 | 121 |  |
| O=C(NCc1cn(-c2cc(C(F)(F)F)cc(C(F)(F)F)c2)nn1)c1cc2c([nH]c3ccccc32)c(-c2ccc(Cl)cc2Cl)n1 | 2500 |  |  | 155 | 120 |  |
| COc1cc([C@@H]2c3cc4c(cc3[C@H](O)[C@H]3COC(=O)[C@H]23)OCO4)cc(OC)c1OC [PODOFILOX] |  |  |  | 8.7 |  |  |
| COc1cc(NC(C)CCCN)c2ncccc2c1 (configuration not stated) [PRIMAQUINE] |  |  |  |  |  | IC50 [15]: 2.5 µM |
| O=C(NCc1cn(-c2ccc(F)cc2)nn1)c1cc2c([nH]c3ccccc32)c(-c2cccc(Cl)c2)n1 | 410 | 660 | 1.61 | 227 | 553 |  |
| O=C(NCc1cn(-c2ccccc2)nn1)c1cc2c([nH]c3ccccc32)c(-c2ccccc2)n1 | 2920 |  |  | 220 | 75.3 |  |
| C#CCNC(=O)c1cc2c([nH]c3ccccc32)c(-c2ccc(F)cc2)n1 | 3460 |  |  | 167 |  |  |
| O=C(NCc1cn(-c2ccc(F)cc2)nn1)c1cc2c([nH]c3ccccc32)c(-c2ccc(Cl)cc2Cl)n1 | 1840 |  |  | 167 | 90.5 |  |
| Cc1ccc(-c2nc(C(=O)NCc3cn(-c4ccc(F)cc4)nn3)cc3c2[nH]c2ccccc23)cc1 | 1940 |  |  | 177 | 91.4 |  |
| Cc1ccc(-n2cc(CNC(=O)c3cc4c([nH]c5ccccc54)c(-c4ccc(Cl)cc4Cl)n3)nn2)cc1 | 2500 |  |  | 222 | 88.8 |  |
| COc1ccc(-c2nc(C(=O)NCc3cn(-c4cccc(C(F)(F)F)c4)nn3)cc3c2[nH]c2ccccc23)cc1 | 450 | 650 | 1.44 | 200 | 444 |  |
| O=C(NCc1cn(-c2cccc(C(F)(F)F)c2)nn1)c1cc2c([nH]c3ccccc32)c(-c2ccccc2)n1 | 1470 |  |  | 200 | 136 |  |
| CCc1ccc(-n2cc(CNC(=O)c3cc4c([nH]c5ccccc54)c(-c4ccc(C)cc4)n3)nn2)cc1 | 750 | 490 | 0.65 | 200 | 266 | Activity [6]: 100%; Activity [9]: Active; Irreversible Structural Deformations Observed; Activity [10]: Active; Irreversible Structural Deformations Observed; Activity [11]: Active; Irreversible Structural Deformations Observed; Activity [12]: Active; Irreversible Structural Deformations Observed; Activity [13]: inactive; Activity [14]: inactive; IC50 [15]: 7.58 µM |
| O=C(NCc1cn(-c2ccc(F)cc2)nn1)c1cc2c([nH]c3ccccc32)c(-c2ccccc2)n1 | 1400 |  |  | 207 | 148 |  |
| COc1ccc(-n2cc(CNC(=O)c3cc4c([nH]c5ccccc54)c(-c4ccc(Cl)cc4Cl)n3)nn2)cc1 | 920 | 570 | 0.62 | 221 | 240 | Activity [6]: 95.63%; Activity [9]: Active; Irreversible Structural Deformations Observed; Activity [10]: Active; Irreversible Structural Deformations Observed; Activity [11]: Active; Irreversible Structural Deformations Observed; Activity [12]: Active; Irreversible Structural Deformations Observed; Activity [13]: inactive; Activity [14]: inactive |
